Patent publication US12312359B2 (Vitae Pharmaceuticals, LLC, priority 2016, dated 2025)

Legend:
[1] = target: T1, biotinylated wild-type menin and MLL-AF9 fusion protein (menin/MLL binding) (Homo sapiens, UniProt O00255); assay: Assay 1: menin/MLL binding AlphaLISA assay, wild-type menin; conditions: Table 30; column head does not say wild-type or mutated menin
T1 construct: made in house; host or cells: menin: E. coli; MLL-AF9-FLAG: HEK293 cells, used as cleared lysate
T1 sequence (O00255 1-610): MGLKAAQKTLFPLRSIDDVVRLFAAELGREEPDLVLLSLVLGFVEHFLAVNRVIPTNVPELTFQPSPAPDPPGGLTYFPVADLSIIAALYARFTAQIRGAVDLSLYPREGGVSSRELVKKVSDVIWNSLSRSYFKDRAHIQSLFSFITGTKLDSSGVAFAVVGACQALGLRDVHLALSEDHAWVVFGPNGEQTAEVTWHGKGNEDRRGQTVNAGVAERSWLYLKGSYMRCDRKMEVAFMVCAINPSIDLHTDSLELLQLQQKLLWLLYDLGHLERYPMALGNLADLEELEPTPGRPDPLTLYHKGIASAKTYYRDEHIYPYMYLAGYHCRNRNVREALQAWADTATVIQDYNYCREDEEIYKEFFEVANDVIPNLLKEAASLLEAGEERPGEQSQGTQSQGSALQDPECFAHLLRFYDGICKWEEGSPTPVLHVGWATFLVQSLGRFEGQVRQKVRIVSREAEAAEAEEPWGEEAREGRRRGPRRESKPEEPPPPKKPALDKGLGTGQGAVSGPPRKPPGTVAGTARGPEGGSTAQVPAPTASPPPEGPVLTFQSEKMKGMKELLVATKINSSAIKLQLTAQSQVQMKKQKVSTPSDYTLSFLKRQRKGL
How it was run: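 Compound was preincubated 30 min at room temperature with biotinylated menin (5 nM) and MLL-AF9-FLAG lysate from HEK293 cells, pH 7.4 buffer with 5% DMSO and DTT. Bead-based Alpha signal after 60 min with streptavidin donor and anti-FLAG acceptor beads; four-parameter logistic fit gave IC50.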

[2] = test system: human acute monocytic leukemia cell line MV-4-11; assay: Assay 2: cell proliferation assay (ATP quantitation, CellTiter-Glo), MV-4-11; assay type: cell-based; conditions: MV-4-11 cells
How it was run: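 MV-4-11 cells, 1.67×10^4 per well in medium with 10% FBS, were exposed to compound for 72 h at 37° C., 5% CO2; HL-60 cells served as toxicity control. Proliferation read as ATP content by CellTiter-Glo luminescence.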

Compound	IC50 [1] [nM]	EC50 ([2]; Homo sapiens, MV4-11, 72 h) [nM]	EC50 ([2]; 72 h) [nM]
CC(C)N(C)S(=O)(=O)c1cc(F)ccc1Oc1cncnc1N1CCC2(CCN(Cc3ccc4[nH]c(=O)[nH]c4c3)C2)C1 (stereo not drawn) [Example 222, 5-fluoro-N-isopropyl-N-methyl-2-((4-(7-((2-oxo-2,3-dihydro-1H-benzo[d]imidazol-5-yl)methyl)-2,7-diazaspiro[4.4]nonan-2-yl)pyrimidin-5-yl)oxy)benzenesulfon-amide]	< 100	≥ 1000	–
CC(C)n1nccc1-c1cc(F)ccc1Oc1cncnc1N1CCC2(CCN(C(=O)C(N)C3CCCCC3)C2)C1 (single isomer, unassigned) [Example 206A, 2-amino-2-cyclohexyl-1-(7-(5-(4-fluoro-2-(1-isopropyl-1H-pyrazol-5-yl)phenoxy)pyrimidin-4-yl)-2,7-diazaspiro[4.4]nonan-2-yl)ethanone]	< 100	100 to 1000	–
CCN(C(=O)C(C)C)c1cc(F)ccc1Oc1cncnc1N1CC2(CCN(CC3CCCCC3)C2)C1 [Example 158, N-(2-((4-(6-(cyclohexylmethyl)-2,6-diazaspiro[3.4]octan-2-yl)pyrimidin-5-yl)oxy)-5-fluorophenyl)-N-ethylisobutyramide]	< 100	100 to 1000	–
CC(C)N(CCO)C(=O)c1cc(F)ccc1Oc1cncnc1N1CCC2(CCN(Cc3ccc4[nH]c(=O)[nH]c4c3)C2)C1 (stereo not drawn) [Example 5, 5-fluoro-N-(2-hydroxyethyl)-N-isopropyl-2-((4-(7-((2-oxo-2,3-dihydro-1H-benzo[d]imidazol-5-yl)methyl)-2,7-diazaspiro[4.4]nonan-2-yl)pyrimidin-5-yl)oxy)benzamide]	< 100	< 100	–
N#Cc1ccc(-c2cc(F)ccc2Oc2cncnc2N2CCC3(CCC(N)(Cc4ccccc4)C3)C2)c(C2CC2)c1 (single isomer, unassigned) [Example 250B, 2′-((4-(7-amino-7-benzyl-2-azaspiro[4.4]nonan-2-yl)pyrimidin-5-yl)oxy)-2-cyclopropyl-5′-fluoro-[1,1′-biphenyl]-4-carbonitrile]	< 100	≥ 1000	–
CC(C)N(C)C(=O)c1cc(F)ccc1Oc1cncnc1N1CCC2(CCN(Cc3ccc4[nH]c(=O)[nH]c4c3)C2)C1 (single isomer, unassigned) [Example 183B, 5-fluoro-N-isopropyl-N-methyl-2-((4-(7-((2-oxo-2,3-dihydro-1H-benzo[d]imidazol-5-yl)methyl)-2,7-diazaspiro[4.4]nonan-2-yl)pyrimidin-5-yl)oxy)benzamide]	< 100	–	< 100
CC(=O)Nc1ccc(CN2CCC3(CCN(c4ncncc4Oc4ccc(F)cc4-c4ccc(C#N)cc4C4CC4)C3)C2)cc1Cl (stereo not drawn) [Example 172, N-(2-chloro-4-((7-(5-((4′-cyano-2′-cyclopropyl-5-fluoro-[1,1′-biphenyl]-2-yl)oxy)pyrimidin-4-yl)-2,7-diazaspiro[4.4]nonan-2-yl)methyl)phenyl) acetamide]	< 100	100 to 1000	–
C=C(C)c1ccccc1-c1cc(F)ccc1Oc1cncnc1N1CCC2(CCN(Cc3ccc4[nH]c(=O)[nH]c4c3)C2)C1 (stereo not drawn) [Example 161, 5-((7-(5-((5-fluoro-2′-(prop-1-en-2-yl)-[1,1′-biphenyl]-2-yl)oxy)pyrimidin-4-yl)-2,7-diazaspiro[4.4]nonan-2-yl)methyl)-1,3-dihydro-2H-benzo[d]imidazol-2-one]	< 100	< 100	–
CC(F)(F)c1ccccc1-c1cc(F)ccc1Oc1cncnc1N1CCC2(CCN(Cc3ccc4[nH]c(=O)[nH]c4c3)C2)C1 (stereo not drawn) [Example 213, 5-((7-(5-((2′-(1,1-difluoroethyl)-5-fluoro-[1,1′-biphenyl]-2-yl)oxy)pyrimidin-4-yl)-2,7-diazaspiro[4.4]nonan-2-yl)methyl)-1,3-dihydro-2H-benzo[d]imidazol-2-one]	< 100	< 100	–
CC(=O)Nc1ccc(CN2C(=O)C3(CCN(c4ncncc4Oc4ccc(F)cc4C(=O)N(C)C(C)C)C3)N=C2N)cc1 (stereo not drawn) [Example 251, 2-((4-(3-(4-acetamidobenzyl)-2-amino-4-oxo-1,3,7-triazaspiro[4.4]non-1-en-7-yl)pyrimidin-5-yl)oxy)-5-fluoro-N-isopropyl-N-methylbenzamide]	< 100	≥ 1000	–
CC(O)c1ccccc1-c1cc(F)ccc1Oc1cncnc1N1CCC2(CCN(Cc3ccc4[nH]c(=O)[nH]c4c3)C2)C1 (single isomer, unassigned) [Example 60A, 5-((7-(5-((5-fluoro-2′-(1-hydroxyethyl)-[1,1′-biphenyl]-2-yl)oxy)pyrimidin-4-yl)-2,7-diazaspiro[4.4]nonan-2-yl)methyl)-1H-benzo[d]imidazol-2(3H)-one]	< 100	< 100	–
CC(C)N(C(=O)c1cc(F)ccc1Oc1cncnc1N1CCC2(CC(Cc3ccc(F)cc3)N(CCO)C2)C1)C(C)C (single isomer, unassigned) [Example 26A, 5-fluoro-2-((4-(8-(4-fluorobenzyl)-7-(2-hydroxyethyl)-2,7-diazaspiro[4.4]nonan-2-yl)pyrimidin-5-yl)oxy)-N,N-diisopropylbenzamide]	< 100	–	100 to 1000

The next lines start with the values.

IC50 [1] [nM]	EC50 ([2]; Homo sapiens, MV4-11, 72 h) [nM]	EC50 ([2]; 72 h) [nM]	Compound
< 100	100 to 1000	–	CN(C(=O)c1cc(F)ccc1Oc1cncnc1N1CCC2(CCN(Cc3ccc4[nH]c(=O)[nH]c4c3)C2)C1)c1ccccc1 (stereo not drawn) [Example 166, 5-fluoro-N-methyl-2-((4-(7-((2-oxo-2,3-dihydro-1H-benzo[d]imidazol-5-yl)methyl)-2,7-diazaspiro[4.4]nonan-2-yl)pyrimidin-5-yl)oxy)-N-phenylbenzamide]
< 100	100 to 1000	–	CC1(C)C(=O)Nc2cc(CN3CCC4(CCN(c5ncncc5Oc5ccc(F)cc5OCC(F)(F)F)C4)C3)ccc21 (stereo not drawn) [Example 182, 6-((7-(5-(4-fluoro-2-(2,2,2-trifluoroethoxy)phenoxy)pyrimidin-4-yl)-2,7-diazaspiro[4.4]nonan-2-yl)methyl)-3,3-dimethylindolin-2-one]
< 100	< 100	–	CC(C)c1ncncc1-c1cc(F)ccc1Oc1cncnc1N1CC2(CN(C(=O)Cc3ccc(C#N)cc3)C2)C1 [Example 227, 4-(2-(6-(5-(4-fluoro-2-(4-isopropylpyrimidin-5-yl)phenoxy)pyrimidin-4-yl)-2,6-diazaspiro[3.3]heptan-2-yl)-2-oxoethyl)benzonitrile]
< 100	< 100	–	CC(C)N(C(=O)c1cc(F)ccc1Oc1cncnc1N1CC2(CN(CC[C@H]3CC[C@H](NC(=O)C(C)(C)C)CC3)C2)C1)C(C)C [Example 105, 5-fluoro-N,N-diisopropyl-2-((4-(6-(2-((1r,4r)-4-pivalamidocyclo-hexyl)ethyl)-2,6-diazaspiro[3.3]heptan-2-yl)pyrimidin-5-yl)oxy)benzamide]
< 100	< 100	–	CC(C)c1scnc1-c1cc(F)ccc1Oc1cncnc1N1CCC2(CCN(Cc3ccc4[nH]c(=O)[nH]c4c3)C2)C1 (stereo not drawn) [Example 190, 5-((7-(5-(4-fluoro-2-(5-isopropylthiazol-4-yl)phenoxy)pyrimidin-4-yl)-2,7-diazaspiro[4.4]nonan-2-yl)methyl)-1,3-dihydro-2H-benzo[d]imidazol-2-one]
< 100	< 100	–	CCN(C(=O)C(C)C)c1cc(F)ccc1Oc1cncnc1N1CCC2(CCN(Cc3ccc4[nH]c(=O)[nH]c4c3)C2)C1 (stereo not drawn) [Example 186, N-ethyl-N-(5-fluoro-2-((4-(7-((2-oxo-2,3-dihydro-1H-benzo[d]imidazol-5-yl)methyl)-2,7-diazaspiro[4.4]nonan-2-yl)pyrimidin-5-yl)oxy)phenyl) isobutyramide]
< 100	< 100	–	CN(C)C(c1cc(F)ccc1Oc1cncnc1N1CCC2(CCN(Cc3ccc4[nH]c(=O)[nH]c4c3)C2)C1)C1CCCC1 (stereo not drawn) [Example 8, 5-((7-(5-(2-(cyclopentyl(dimethylamino)methyl)-4-fluorophenoxy)pyrimidin-4-yl)-2,7-diazaspiro[4.4]nonan-2-yl)methyl)-1,3-dihydro-2H-benzo[d]imidazol-2-one]
< 100	< 100	–	CC(C)N(C(=O)c1cc(F)ccc1Oc1cncnc1N1CC2(CCN(CC(C)(C)C)C2)C1)C(C)C [Example 102, 5-fluoro-N,N-diisopropyl-2-((4-(6-neopentyl-2,6-diazaspiro[3.4]octan-2-yl)pyrimidin-5-yl)oxy)benzamide]
< 100	100 to 1000	–	CC(C)c1ncncc1-c1cc(F)ccc1Oc1cncnc1N1CC2(CCC(NC(C)(C)C)C2)C1 (stereo not drawn) [Example 96, N-(tert-butyl)-2-(5-(4-fluoro-2-(4-isopropylpyrimidin-5-yl)phenoxy)pyrimidin-4-yl)-2-azaspiro[3.4]octan-6-amine]
